Measurements published in patent US7662851B2, “Use of specific cyklolignans” (Axelar AB, priority 2001, dated 2010).

Assays:
[1] = Systemic toxicity, daily intraperitoneal injection in nude mice; settings: for Signs of disease: up to 5 days
Description: Four to five-week old pathogen-free nude mice (nu/nu) were used and housed within plastic isolators in a sterile facility. […] Experimental treatments with podophyllotoxin, deoxypodophyllotoxin or picropodophyllin were performed by daily intraperitoneal injections of the compound in 100 μl volume of solvent, composed of a mixture of DMSO and physiological saline (8:2). Control mice were treated with the solvent. 3-6 animals were treated in each group. Animals were monitored three times a week for signs of disease and tumor growth. Tumor mass was estimated using the formula (d^2×D)/2, where d and D represent the small and large diameters of the tumor, respectively. The mice were carefully observed for presence of side effects and were sacrificed at the end of the experiments for histological analysis of the lesions. All experiments were performed according to the ethical guidelines for laboratory animal use, provided by institutional ethical committee.
In the next experiment we analyzed systemic effects of the drugs by injecting 100 μl intraperitoneally of each compound daily over 5 days. Two doses were injected (7 or 28 mg/kg/d) and 3-6 mice were used for each drug and dose. The mice were checked carefully daily for signs of discomfort, diseases and weight loss.

[2] = target: T1, IGF-1R (Homo sapiens, UniProt P08069); experiment: IGF-1R phosphorylation in HaCaT cells (psoriasis model); format: cell-based; design: expressed in transfected cells; host or cells: P6 cell line (murine fibroblasts overexpressing human IGF-1R); receptor captured on plates with an antibody to the beta subunit; settings: 0.05 μM, 1 h, control 100
T1 sequence (P08069 31-1367): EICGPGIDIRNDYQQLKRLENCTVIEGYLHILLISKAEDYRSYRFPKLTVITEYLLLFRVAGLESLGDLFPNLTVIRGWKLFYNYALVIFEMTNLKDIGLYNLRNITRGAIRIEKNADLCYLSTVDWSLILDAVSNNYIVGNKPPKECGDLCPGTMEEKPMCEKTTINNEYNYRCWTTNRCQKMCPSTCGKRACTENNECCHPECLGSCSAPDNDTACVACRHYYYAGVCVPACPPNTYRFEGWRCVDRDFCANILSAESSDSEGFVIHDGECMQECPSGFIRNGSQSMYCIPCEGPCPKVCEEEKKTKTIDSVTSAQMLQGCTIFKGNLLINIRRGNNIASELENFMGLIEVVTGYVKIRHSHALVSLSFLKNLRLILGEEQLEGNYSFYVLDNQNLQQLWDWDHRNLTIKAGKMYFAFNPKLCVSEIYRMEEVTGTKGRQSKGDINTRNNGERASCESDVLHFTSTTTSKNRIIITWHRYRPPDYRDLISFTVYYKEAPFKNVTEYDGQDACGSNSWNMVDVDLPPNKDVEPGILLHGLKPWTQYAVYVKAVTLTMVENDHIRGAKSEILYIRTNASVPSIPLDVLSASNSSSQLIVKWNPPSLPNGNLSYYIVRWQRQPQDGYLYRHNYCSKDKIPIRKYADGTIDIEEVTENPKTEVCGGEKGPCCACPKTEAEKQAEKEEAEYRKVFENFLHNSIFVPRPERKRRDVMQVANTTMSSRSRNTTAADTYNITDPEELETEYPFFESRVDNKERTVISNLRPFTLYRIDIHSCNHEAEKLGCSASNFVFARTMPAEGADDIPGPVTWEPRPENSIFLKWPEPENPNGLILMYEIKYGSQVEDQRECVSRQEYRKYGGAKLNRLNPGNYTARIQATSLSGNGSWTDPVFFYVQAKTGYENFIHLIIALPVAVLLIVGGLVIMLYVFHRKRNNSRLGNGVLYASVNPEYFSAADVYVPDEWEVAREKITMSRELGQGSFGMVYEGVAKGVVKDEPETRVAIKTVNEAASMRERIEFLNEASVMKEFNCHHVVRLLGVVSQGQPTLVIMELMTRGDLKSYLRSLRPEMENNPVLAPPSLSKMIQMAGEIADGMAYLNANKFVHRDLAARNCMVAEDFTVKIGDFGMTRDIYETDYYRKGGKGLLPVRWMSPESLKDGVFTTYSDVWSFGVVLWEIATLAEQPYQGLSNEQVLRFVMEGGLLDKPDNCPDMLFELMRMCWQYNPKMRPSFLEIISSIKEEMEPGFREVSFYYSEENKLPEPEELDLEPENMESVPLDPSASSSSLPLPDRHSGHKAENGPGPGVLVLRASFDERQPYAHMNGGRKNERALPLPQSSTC
Description: Keratinocytes (HaCaT cells) were provided by and tested in collaboration with Professor Mona Bäckdahl, Department of Dermatology, Karolinska Hospital, Stockholm, Sweden. The HaCaT cell line is a spontaneously immortalized human keratinocyte cell line (Boukamp P, et al., J Cell Biol 106: 761-771, 1988), which is frequently used as an experimental model for psoriasis (Wraight, C. J., et al. Nat Biotechnol 18: 521-526, 2000.) HaCaT cells were cultured in Dulbecco's Modified Eagle's Medium containing 10% fetal bovine serum, glutamine, benzylpenicillin and streptomycin.
Cells were cultured to subconfluency in 6-cm plates, and then fresh medium containing 10% FBS and the desired compounds were added for 1 h. The cells were then lyzed and subjected to immunoprecipitation using specific antibodies. […] After detection the films were scanned for quantification.
HaCaT cells, which are immortalized human keratinocytes and represent a model cell line for psoriasis, were seeded in 6-cm dishes or in 96-well plates (medium volume in a well was 100 μl), at a concentration of 7,000 cells/cm^2 in Dulbecco's Modified Eagle's Medium containing 10% fetal bovine serum. […] After 1 h incubation the cells in the 6-cm dishes were harvested for assay and quantification of IGF-1R phosphorylation as described in Experiment 1. […]

[3] = target: T1, IGF-1R; experiment: Tyrosine phosphorylation of IGF-1R in intact FM55 melanoma cells; format: cell-based; design: endogenous in cells; settings: 0.05 μM, 1 h; for Level of phosphorylation in intact cells, substrate IGF-1R: FM55 cells, Experiment 3; for Level of IGF-1R phosphorylation in intact cells: FM55 melanoma cells, means of 3 experiments
Description: Cells were cultured to subconfluency in 6-cm plates, and then fresh medium containing 10% FBS and the desired compounds were added for 1 h. The cells were then lyzed and subjected to immunoprecipitation using specific antibodies. Immunoprecipitates were resolved by sodium dodecyl sulphate polyacrylamide gel electrophoresis (SDS-PAGE) and transferred to nitro-cellulose membranes and incubated with anti-phosphotyrosine antibody. Antibodies to actin (in cell extract) or IGF-1R beta subunit were used as loading controls. After detection the films were scanned for quantification.
The isolated cells were then lyzed in 10 ml ice-cold PBSTDS containing protease inhibitors (Carlberg, M., et al., J Biol Chem 271:17453-17462, 1996). 50 μl protein A or G agarose was added in 1 ml sample and incubated for 15 min at 4° C. on an orbital shaker. After centrifugation for 10 min at 10,000 r/min at 4° C. the supernatant was saved. The protein content was determined by a dye-binding assay with a reagent purchased from Bio-Rad. Bovine serum albumin was used as a standard. 15 μl Protein G Plus agarose and 5 μl anti-IGF-1R were added. After a 3 h incubation at 4° C. on an orbital shaker the precipitate was collected by pulse centrifugation in a micro centrifuge at 14,000×g for 10 s. The supernatant was discarded and the pellet was washed 3 times with PBSTDS.
Protein samples were solved in a 2×-sample buffer containing Laemmli buffer and 0.5% […] and boiled for 5 min at 96° C. Samples were separated by SDS-PAGE with a 4% stacking gel and 7.5% separation gel. Molecular weight markers (Bio Rad, Sweden) were run simultaneously in all experiments.
Following SDS-PAGE the proteins were transferred overnight to nitro-cellulose membranes (Hybond, Amersham, UK) and then blocked for 1 h at room temperature in a solution of 4% skimmed milk powder and 0.02% Tween 20 in PBS, pH 7.5. Incubations with the primary antibodies were performed for 1 h at room temperature, followed by 3 washes with PBS with Tween and incubation with the second antibody for 1 h room temperature. After another 3 washes the membranes were incubated with Streptavidin-labelled horseradish peroxidase for 30 min and then detected using Amersham ECL system (Amersham, UK). The films were scanned by Fluor-S (BioRad).
FM55 melanoma cells were seeded in 6-cm dishes, at a concentration of 10,000 cells/cm^2 in Minimal Essential Medium supplemented with 10% fetal calf serum (FCS). When the cells reached a density of 65,000 cells/cm^2 in the dishes, they were treated for 1 h with 0.05 μM podophyllotoxin, deoxypodophyllotoxin, picropodophyllin, deoxypicropodophyllin, 4′-demethyl-7-(4,6-O-ethylidene-β-D-glucopyranosyl)epipodophyllotoxin (etoposide) and podophyllotoxin-4,6-O-benzylidene-β-D-glucopyranoside (pf-4,6-O). Etoposide and pf-4,6-O were also administered at 15 μM. The cells were then harvested for assay and quantification of IGF-1R phosphorylation as described in Experiment 1. The values shown in Table 1 represent means of 3 experiments.
FM55 melanoma cells were cultured in the same way as described in Experiment 1. When reaching a density of 65,000 cells/cm^2 in the dishes, they were treated for 1 h with 0 (control) and 0.05 μM of picropodophyllin and podophyllotoxin, respectively. The cells were then isolated and subjected to immunoprecipitation of the IGF-1R, fibroblast growth factor receptor (FGFR), platelet-derived growth factor receptor (PDGFR), epidermal growth factor receptor (EGFR), insulin receptor (IR) and insulin substrate-1 (IRS-1) using antibodies to respective molecules. IRS-1 is a substrate of IGF-1R, and therefore its phosphorylation is dependent on phosphorylated IGF-1R. Gelelectrophoresis, Western blotting and quantification of the different signals were performed as described above.

Row | SMILES | Surviving mice/Investigated mice ([1]; 7 mg/kg/d i.p., 1 d) | Surviving mice/Investigated mice ([1]; 7 mg/kg/d i.p., 2 d) | Surviving mice/Investigated mice ([1]; 7 mg/kg/d i.p., 3 d) | Surviving mice/Investigated mice ([1]; 7 mg/kg/d i.p., 4 d) | Surviving mice/Investigated mice ([1]; 7 mg/kg/d i.p., 5 d) | Surviving mice/Investigated mice ([1]; 28 mg/kg/d i.p., 1 d) | Surviving mice/Investigated mice ([1]; 28 mg/kg/d i.p., 2 d) | Surviving mice/Investigated mice ([1]; 28 mg/kg/d i.p., 3 d) | Surviving mice/Investigated mice ([1]; 28 mg/kg/d i.p., 4 d) | Surviving mice/Investigated mice ([1]; 28 mg/kg/d i.p., 5 d) | Signs of disease ([1]; high dose (28 mg/kg/d) i.p. daily) | Signs of disease ([1]; low dose (7 mg/kg/d) i.p. daily) | IGF-1R phosphorylation [2] | Level of phosphorylation in intact cells, substrate IGF-1R [3] [% OD] | Level of IGF-1R phosphorylation in intact cells [3] [% OD] | Animals dead within 2 days ([1]; high dose (28 mg/kg/d) i.p.) [%] | Animals dead within 2 days ([1]; low dose (7 mg/kg/d) i.p.) [%]
1 | COc1cc([C@@H]2c3cc4c(cc3[C@H](O)[C@H]3COC(=O)[C@@H]23)OCO4)cc(OC)c1OC [Picropodophyllin, picropodophyllin] | 3/3 | 3/3 | 3/3 | 3/3 | 3/3 | 6/6 | 6/6 | 6/6 | 6/6 | 6/6 | did not exhibit any evidence of disease | did not exhibit any evidence of disease | 35 | 20 | 8 | – | –
2 | COc1cc([C@@H]2c3cc4c(cc3[C@H](O)[C@H]3COC(=O)[C@H]23)OCO4)cc(OC)c1OC [Podophyllotoxin, podophyllotoxin] | 3/3 | 1/3 | 0/3 | – | – | 2/6 | 0/6 | – | – | – | – | – | 45 | 7 | 5 | 100 | 67
